Reference: US20250145585A1, “HETEROCYCLIC INHIBITORS OF IGF-1R FOR TREATMENT OF DISEASE” (HORIZON THERAPEUTICS IRELAND DAC, priority 2023, published 2025)
pIC50: −log10 of the molar value.

Biological target: T1, IGF-1R (Homo sapiens, UniProt P08069)
T1 construct: expressed in transfected cells
Assay: Example B-1: IGF-1R Assay (PC3 cells stimulated with IGF1, AlphaLISA on cell lysates)
Type: cell-based
Details: compound two hours, IGF1 200 ng/mL for 30 min, read-out: IC50, Biological Activity against IGF-1R (Table B1)
Procedure: 50K PC3 cells were seeded on day 1 in 50 μL of media in 96-well plate and incubated overnight at 37° C., 5% CO2. On day 2, all cells were expected to be at 80-90% confluency. Cells were starved for two hours by changing the media to 90 μL of EMEM serum-free media and incubated for 2 hours. Next, cells were treated with 10 μL of 10× concentrated and 3× serially diluted compounds for two hours. It makes 1× of compounds in 100 μL media. This was followed by stimulation of cells with 11×IGF1 for 30 min in 10 μL of serum-free EMEM media at the final concentration of 200 ng/mL.
The media was removed and replaced by 50 μL of 1× lysis buffer from the AlphaLISA kit (with 1× of cOmplete™ protease inhibitor). The plates were sealed, and cells were allowed to lyse for 10 min in the shaker before storing the plate at −20° C. until used. The AlphaLISA assay with processed cell lysates were performed as described in the protocol. Briefly, 10 μL of the undiluted sample were loaded to 384 well Optiplates and 5 μL of the acceptor mix (as described in the AlphaLISA kit) was added to each well. The plates were sealed and briefly vortexed followed by the incubation at RT for 3 hours. In the dark, 5 μL of donor mix was added to each well. All plates were sealed and stored at RT overnight. The plates were read in EnVision reader using standard AlphaLISA settings.
Compound activity was analyzed using CBIS data analysis suite (Cheminnovation, CA). Percentage inhibition was calculated using the following formula: % I-hibition=100%×(1−(mea−RLU of test sample−mean RLU of vehicle control)/(mean-RLU of EC80 control−mean RLU of vehicle control)). The activity for representative examples of the invention is shown in the following table, wherein A: IC50≤500 nM; B: 500 nM<IC50≤2 μM; C: 2 μM<IC50≤10 μM; D: IC50>10 μM.

T1 sequence (P08069 31-1367): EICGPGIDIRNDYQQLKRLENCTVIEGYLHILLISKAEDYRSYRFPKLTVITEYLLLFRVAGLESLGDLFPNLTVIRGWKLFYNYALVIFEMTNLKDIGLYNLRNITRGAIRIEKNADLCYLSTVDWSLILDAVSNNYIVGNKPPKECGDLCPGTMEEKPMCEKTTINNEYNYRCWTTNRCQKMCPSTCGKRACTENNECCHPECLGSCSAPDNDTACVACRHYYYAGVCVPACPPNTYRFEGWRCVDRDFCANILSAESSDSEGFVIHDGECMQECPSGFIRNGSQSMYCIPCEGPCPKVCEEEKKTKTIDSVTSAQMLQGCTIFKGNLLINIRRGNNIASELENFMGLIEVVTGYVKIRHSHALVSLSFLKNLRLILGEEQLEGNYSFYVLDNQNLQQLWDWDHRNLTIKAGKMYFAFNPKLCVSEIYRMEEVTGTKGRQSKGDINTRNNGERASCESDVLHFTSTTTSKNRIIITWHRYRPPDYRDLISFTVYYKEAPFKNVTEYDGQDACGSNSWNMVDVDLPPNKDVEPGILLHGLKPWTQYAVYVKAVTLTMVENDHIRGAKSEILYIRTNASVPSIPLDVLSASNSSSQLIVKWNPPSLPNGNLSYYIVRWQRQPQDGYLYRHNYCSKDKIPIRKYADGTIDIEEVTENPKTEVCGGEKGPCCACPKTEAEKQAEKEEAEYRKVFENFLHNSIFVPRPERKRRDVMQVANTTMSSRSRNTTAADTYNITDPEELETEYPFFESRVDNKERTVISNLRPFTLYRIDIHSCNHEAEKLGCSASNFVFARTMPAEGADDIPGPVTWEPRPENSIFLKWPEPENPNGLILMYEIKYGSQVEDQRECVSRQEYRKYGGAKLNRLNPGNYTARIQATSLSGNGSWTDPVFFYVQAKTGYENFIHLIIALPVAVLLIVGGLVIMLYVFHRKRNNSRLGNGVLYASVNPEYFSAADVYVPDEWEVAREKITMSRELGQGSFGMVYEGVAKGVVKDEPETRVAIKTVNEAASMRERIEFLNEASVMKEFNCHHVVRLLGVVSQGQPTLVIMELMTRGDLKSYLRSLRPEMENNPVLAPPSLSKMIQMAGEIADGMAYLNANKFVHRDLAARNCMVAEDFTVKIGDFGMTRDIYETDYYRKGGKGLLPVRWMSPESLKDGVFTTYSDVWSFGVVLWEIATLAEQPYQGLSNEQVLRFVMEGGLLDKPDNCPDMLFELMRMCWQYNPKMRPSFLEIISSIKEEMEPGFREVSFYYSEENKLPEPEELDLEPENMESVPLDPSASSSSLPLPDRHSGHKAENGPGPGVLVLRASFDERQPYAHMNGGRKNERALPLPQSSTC

SMILES | pIC50
CC1(C)C(=O)N(c2ccc(C3(C(F)(F)F)CC3)cc2)C(=O)N1Cc1ccnc2[nH]cc(Br)c12 [Compound 8, 1-((3-bromo-1H-pyrrolo[2,3-b]pyridin-4-yl)methyl)-5,5-dimethyl-3-(4-(1-(trifluoromethyl)cyclopropyl)phenyl)imidazolidine-2,4-dione] | ≥ 6.30
Cc1cc2c(CN3C(=O)N(c4ccc(C5(C(F)(F)F)CC5)cc4)C(=O)C3(C)C)ccnc2[nH]1 [Compound 9, 5,5-dimethyl-1-((2-methyl-1H-pyrrolo[2,3-b]pyridin-4-yl)methyl)-3-(4-(1-(trifluoromethyl)cyclopropyl)phenyl) imidazolidine-2,4-dione] | ≥ 6.30
Cc1[nH]c2nccc(CN3C(=O)N(c4ccc(C5(C(F)(F)F)CC5)cc4)C(=O)C3(C)C)c2c1Cl [Compound 10, 1-((3-chloro-2-methyl-1H-pyrrolo[2,3-b]pyridin-4-yl)methyl)-5,5-dimethyl-3-(4-(1-(trifluoromethyl)cyclopropyl)phenyl) imidazolidine-2,4-dione] | ≥ 6.30
CC1(C)C(=O)N(c2ccc(C3(C(F)(F)F)CC3)cc2)C(=O)N1Cc1ccnc2[nH]c(-c3ccccc3)cc12 [Compound 11, 5,5-dimethyl-1-((2-phenyl-1H-pyrrolo[2,3-b]pyridin-4-yl)methyl)-3-(4-(1-(trifluoromethyl)cyclopropyl)phenyl) imidazolidine-2,4-dione] | ≥ 6.30
CC1(C)Cc2cc(CN3C(=O)N(c4ccc(SC(F)(F)F)cc4)C(=O)C3(C)C)cnc2N1 [Compound 14, 1-((2,2-dimethyl-2,3-dihydro-1H-pyrrolo[2,3-b]pyridin-5-yl)methyl)-5,5-dimethyl-3-(4-((trifluoromethyl)thio)phenyl)imidazolidine-2,4-dione] | < 5.00
CC1(C)C(=O)N(c2ccc(SC(F)(F)F)cc2)C(=O)N1Cc1ccnc2[nH]c(C3CC3)cc12 [Compound 15, 1-((2-cyclopropyl-1H-pyrrolo[2,3-b]pyridin-4-yl)methyl)-5,5-dimethyl-3-(4-((trifluoromethyl)thio)phenyl)imidazolidine-2,4-dione] | < 5.00
CC1(C)C(=O)N(c2ccc(C#N)cc2)C(=O)N1Cc1ccnc(N)c1 [Compound 80, 4-(3-((2-aminopyridin-4-yl)methyl)-4,4-dimethyl-2,5-dioxoimidazolidin-1-yl)benzonitrile] | 5.70 to 6.30
CC1(C)C(=O)N(c2ccc(-c3nccs3)cc2)C(=O)N1Cc1ccnc(N)c1 [Compound 81, 1-((2-aminopyridin-4-yl)methyl)-5,5-dimethyl-3-(4-(thiazol-2-yl)phenyl)imidazolidine-2,4-dione] | 5.00 to 5.70
CC1(C)C(=O)N(c2ccc(C3(C#N)CC3)cc2)C(=O)N1Cc1ccnc(N)c1 [Compound 82, 1-(4-(3-((2-aminopyridin-4-yl)methyl)-4,4-dimethyl-2,5-dioxoimidazolidin-1-yl)phenyl)cyclopropane-1-carbonitrile] | ≥ 6.30
CC1(C)C(=O)N(c2ccc(C3(C(F)(F)F)CC3)cc2)C(=O)N1Cc1ccnc(N)c1 [Compound 83, 1-((2-aminopyridin-4-yl)methyl)-5,5-dimethyl-3-(4-(1-(trifluoromethyl)cyclopropyl)phenyl)imidazolidine-2,4-dione] | ≥ 6.30
CC1(C)C(=O)N(c2ccc(C3CCOC3)cc2)C(=O)N1Cc1ccnc(N)c1 (stereo not shown) [Compound 85, 1-((2-aminopyridin-4-yl)methyl)-5,5-dimethyl-3-(4-(tetrahydrofuran-3-yl)phenyl)imidazolidine-2,4-dione] | 5.70 to 6.30
CC1(C)C(=O)N(c2ccc(C3=CCCCC3)cc2)C(=O)N1Cc1ccnc(N)c1 [Compound 86, 1-((2-aminopyridin-4-yl)methyl)-5,5-dimethyl-3-(2′,3′,4′,5′-tetrahydro-[1,1′-biphenyl]-4-yl)imidazolidine-2,4-dione] | 5.70 to 6.30
CC1(C)C(=O)N(c2ccc(C3CCCCC3)cc2)C(=O)N1Cc1ccnc(N)c1 [Compound 87, 1-((2-aminopyridin-4-yl)methyl)-3-(4-cyclohexylphenyl)-5,5-dimethylimidazolidine-2,4-dione] | 5.70 to 6.30
